In PubChem BioAssay AID1963854 (Molecular Pharmacology Branch, DTP, NCI, 2024):

Test system: 186277-243-T-J2-PDC complex spheroid viability
Test: Anticancer human tumor 186277-243-T-J2-PDC patient-derived colon adenocarcinoma cell line growth inhibition [POLQ]
Conditions: for IC50: curve of first compound; for viability, T/C: stronger effect = lower value
How it was run: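 Three-cell-type spheroids modelling solid tumor plus stroma served as the readout system; POL inhibitors were tested individually and in combination, concentration ranges set by clinical Cmax where known.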

[1] = second compound 0.0316 µM, first compound 0.0316 µM
[2] = second compound 0.0316 µM, first compound 0.1 µM
[3] = second compound 0.0316 µM, first compound 0.316 µM
[4] = second compound 0.0316 µM, first compound 1 µM
[5] = second compound 0.0316 µM, first compound 3.16 µM
[6] = second compound 0.0316 µM, first compound 10 µM
[7] = second compound 0.1 µM, first compound 0.0316 µM
[8] = second compound 0.1 µM, first compound 0.1 µM
[9] = second compound 0.1 µM, first compound 0.316 µM
[10] = second compound 0.1 µM, first compound 1 µM
[11] = second compound 0.1 µM, first compound 3.16 µM
[12] = second compound 0.1 µM, first compound 10 µM
[13] = second compound 0.316 µM, first compound 0.0316 µM
[14] = second compound 0.316 µM, first compound 0.1 µM
[15] = second compound 0.316 µM, first compound 0.316 µM
[16] = second compound 0.316 µM, first compound 1 µM
[17] = second compound 0.316 µM, first compound 3.16 µM
[18] = second compound 0.316 µM, first compound 10 µM
[19] = second compound 1 µM, first compound 0.0316 µM
[20] = second compound 1 µM, first compound 0.1 µM
[21] = second compound 1 µM, first compound 0.316 µM
[22] = second compound 1 µM, first compound 1 µM
[23] = second compound 1 µM, first compound 3.16 µM
[24] = second compound 1 µM, first compound 10 µM
[25] = second compound 3.16 µM, first compound 0.0316 µM
[26] = second compound 3.16 µM, first compound 0.1 µM
[27] = second compound 3.16 µM, first compound 0.316 µM
[28] = second compound 3.16 µM, first compound 1 µM
[29] = second compound 3.16 µM, first compound 3.16 µM
[30] = second compound 3.16 µM, first compound 10 µM
[31] = second compound 10 µM, first compound 0.0316 µM
[32] = second compound 10 µM, first compound 0.1 µM
[33] = second compound 10 µM, first compound 0.316 µM
[34] = second compound 10 µM, first compound 1 µM
[35] = second compound 10 µM, first compound 3.16 µM
[36] = second compound 10 µM, first compound 10 µM
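Also: spheroids exposed to compounds for seven days.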
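For viability, T/C in this document: 100% = DMSO vehicle control viability.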

Q: What does the source list for `CCc1cc2c(N3CCc4c(cc(Cn5ccnc5)cc4-c4cn(C)nc4C(F)(F)F)C3=O)cc(C)nc2c(OC)n1` + COC1C(OC(N)=O)C(O)C(Oc2ccc3c(O)c(NC(=O)c4ccc(O)c(CC=C(C)C)c4)c(=O)oc3c2C)OC1(C)C?
A: IC50 (second compound 0.0316 µM): > 10 µM; IC50 (second compound 0.1 µM): > 10 µM; IC50 (second compound 0.316 µM): > 10 µM; IC50 (second compound 1 µM): > 10 µM; IC50 (second compound 3.16 µM): > 10 µM; IC50 (second compound 10 µM): > 10 µM; viability, T/C [1]: 100%; viability, T/C [2]: 91.7%; viability, T/C [3]: 101%; viability, T/C [4]: 80.4%; viability, T/C [5]: 80.5%; viability, T/C [6]: 77.4%; viability, T/C [7]: 88.1%; viability, T/C [8]: 92.2%; viability, T/C [9]: 92.7%; viability, T/C [10]: 96.9%; viability, T/C [11]: 100%; viability, T/C [12]: 80.4%; viability, T/C [13]: 95.6%; viability, T/C [14]: 101%; viability, T/C [15]: 101%; viability, T/C [16]: 93.5%; viability, T/C [17]: 85.3%; viability, T/C [18]: 84.4%; viability, T/C [19]: 99.1%; viability, T/C [20]: 101%; viability, T/C [21]: 111%; viability, T/C [22]: 104%; viability, T/C [23]: 104%; viability, T/C [24]: 73.7%; viability, T/C [25]: 93.4%; viability, T/C [26]: 96.6%; viability, T/C [27]: 86.3%; viability, T/C [28]: 86.2%; viability, T/C [29]: 98.9%; viability, T/C [30]: 72.4%; viability, T/C [31]: 96.5%; viability, T/C [32]: 102%; viability, T/C [33]: 104%; viability, T/C [34]: 107%; viability, T/C [35]: 99.2%; viability, T/C [36]: 86.1%

Q: For `COc1ccc([C@@H](O)c2cc(-c3ncnc4cc(N5CCOCC5)ccc34)c(F)cc2Cl)nn1` + COC1C(OC(N)=O)C(O)C(Oc2ccc3c(O)c(NC(=O)c4ccc(O)c(CC=C(C)C)c4)c(=O)oc3c2C)OC1(C)C, which IC50 (second compound 0.0316 µM) is on record?
A: 6.3 µM

Q: And the IC50 (second compound 0.1 µM)?
A: 5.61 µM

Q: And the IC50 (second compound 0.316 µM)?
A: 5.55 µM

Q: What about the IC50 (second compound 1 µM) of the same molecule?
A: 6.16 µM

Q: What about the IC50 (second compound 3.16 µM) of the same molecule?
A: 5.34 µM

Q: And the IC50 (second compound 10 µM)?
A: 5.67 µM

Q: What about the viability, T/C [1] of the same molecule?
A: 102%

Q: What about the viability, T/C [2] of the same molecule?
A: 97.2%

Q: And the viability, T/C [3]?
A: 109%

Q: What about the viability, T/C [4] of the same molecule?
A: 95.2%

Q: What about the viability, T/C [5] of the same molecule?
A: 79%

Q: And the viability, T/C [6]?
A: 30.7%

Q: What about the viability, T/C [7] of the same molecule?
A: 103%

Q: What about the viability, T/C [8] of the same molecule?
A: 92.2%

Q: What about the viability, T/C [9] of the same molecule?
A: 106%

Q: What about the viability, T/C [10] of the same molecule?
A: 99.2%

Q: What about the viability, T/C [11] of the same molecule?
A: 72.6%

Q: And the viability, T/C [12]?
A: 27.1%

Q: And the viability, T/C [13]?
A: 102%

Q: And the viability, T/C [14]?
A: 108%

Q: What about the viability, T/C [15] of the same molecule?
A: 108%

Q: And the viability, T/C [16]?
A: 110%

Q: What about the viability, T/C [17] of the same molecule?
A: 71.1%

Q: And the viability, T/C [18]?
A: 27.9%

Q: What about the viability, T/C [19] of the same molecule?
A: 90.9%

Q: And the viability, T/C [20]?
A: 101%

Q: What about the viability, T/C [21] of the same molecule?
A: 113%

Q: What about the viability, T/C [22] of the same molecule?
A: 110%

Q: And the viability, T/C [23]?
A: 78%

Q: What about the viability, T/C [24] of the same molecule?
A: 29.7%

Q: What about the viability, T/C [25] of the same molecule?
A: 106%

Q: What about the viability, T/C [26] of the same molecule?
A: 103%

Q: And the viability, T/C [27]?
A: 108%

Q: What about the viability, T/C [28] of the same molecule?
A: 116%

Q: What about the viability, T/C [29] of the same molecule?
A: 70%

Q: What about the viability, T/C [30] of the same molecule?
A: 26.1%

Q: And the viability, T/C [31]?
A: 108%

Q: What about the viability, T/C [32] of the same molecule?
A: 101%

Q: And the viability, T/C [33]?
A: 109%

Q: And the viability, T/C [34]?
A: 101%

Q: What about the viability, T/C [35] of the same molecule?
A: 72.6%

Q: What about the viability, T/C [36] of the same molecule?
A: 28%

Q: What does the source list for `CC[C@@]1(O)C(=O)OCc2c1cc1n(c2=O)Cc2cc3c(CN(C)C)c(O)ccc3nc2-1` + COC1C(OC(N)=O)C(O)C(Oc2ccc3c(O)c(NC(=O)c4ccc(O)c(CC=C(C)C)c4)c(=O)oc3c2C)OC1(C)C?
A: IC50 (second compound 0.0316 µM): 0.0699 µM; IC50 (second compound 0.1 µM): 0.0607 µM; IC50 (second compound 0.316 µM): 0.0525 µM; IC50 (second compound 1 µM): 0.0487 µM; IC50 (second compound 3.16 µM): 0.0485 µM; IC50 (second compound 10 µM): 0.048 µM; viability, T/C (second compound 0.0316 µM, first compound 0.000316 µM): 105%; viability, T/C (second compound 0.0316 µM, first compound 0.001 µM): 103%; viability, T/C (second compound 0.0316 µM, first compound 0.00316 µM): 97.4%; viability, T/C (second compound 0.0316 µM, first compound 0.01 µM): 114%; viability, T/C [1]: 65.5%; viability, T/C [2]: 43%; viability, T/C (second compound 0.1 µM, first compound 0.000316 µM): 96.1%; viability, T/C (second compound 0.1 µM, first compound 0.001 µM): 99.1%; viability, T/C (second compound 0.1 µM, first compound 0.00316 µM): 117%; viability, T/C (second compound 0.1 µM, first compound 0.01 µM): 115%; viability, T/C [7]: 60.4%; viability, T/C [8]: 42%; viability, T/C (second compound 0.316 µM, first compound 0.000316 µM): 101%; viability, T/C (second compound 0.316 µM, first compound 0.001 µM): 113%; viability, T/C (second compound 0.316 µM, first compound 0.00316 µM): 104%; viability, T/C (second compound 0.316 µM, first compound 0.01 µM): 109%; viability, T/C [13]: 57.9%; viability, T/C [14]: 40%; viability, T/C (second compound 1 µM, first compound 0.000316 µM): 105%; viability, T/C (second compound 1 µM, first compound 0.001 µM): 105%; viability, T/C (second compound 1 µM, first compound 0.00316 µM): 97.1%; viability, T/C (second compound 1 µM, first compound 0.01 µM): 120%; viability, T/C [19]: 57%; viability, T/C [20]: 38.5%; viability, T/C (second compound 3.16 µM, first compound 0.000316 µM): 97.3%; viability, T/C (second compound 3.16 µM, first compound 0.001 µM): 107%; viability, T/C (second compound 3.16 µM, first compound 0.00316 µM): 102%; viability, T/C (second compound 3.16 µM, first compound 0.01 µM): 107%; viability, T/C [25]: 56.6%; viability, T/C [26]: 38.9%; viability, T/C (second compound 10 µM, first compound 0.000316 µM): 107%; viability, T/C (second compound 10 µM, first compound 0.001 µM): 119%; viability, T/C (second compound 10 µM, first compound 0.00316 µM): 104%; viability, T/C (second compound 10 µM, first compound 0.01 µM): 110%; viability, T/C [31]: 56.3%; viability, T/C [32]: 38.9%
